In US7138361B2, “Herbicidal heterocycles” (E. I. du Pont de Nemours and Company, priority 2000, dated 2006):

Key:
Assay in all cases: Test C postemergence
Type in all cases: in vivo
[1] = tested on: downy brome (Bromus tectorum)
In short: (§1)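 Preemergence: seeds sown then treated. Postemergence: plants 2–18 cm, 1- to 4-leaf. Both with surfactant-containing solvent formulation; visual injury scored 0–100 after 12–14 d.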

[2] = tested on: windgrass (Apera spica-venti)
In short: as §1

[3] = tested on: blackgrass (Alopecurus myosuroides)
In short: as §1

[4] = tested on: wheat (Triticum aestivum)
In short: as §1

[5] = tested on: canary grass (Phalaris minor)
In short: as §1

[6] = tested on: green foxtail (Setaria viridis)
In short: as §1

[7] = tested on: Italian ryegrass (Lolium multiflorum)
In short: as §1

wild oat (Avena fatua) = tested on: wild oat (Avena fatua)
In short: as §1

[8] = Rate 125 g/ha, scale 0 to 100, 0 no effect, 100 complete control
[9] = Rate 250 g/ha, scale 0 to 100 (0 no effect, 100 complete control)
[10] = Rate 500 g/ha, scale 0 to 100 (0 no effect, 100 complete control)

CC1(c2ccn(C3OCN(c4cccc(OC(F)(F)F)c4)C3=O)n2)CC1 (centres unmarked) [Compound 69]
Plant response rating, Downy Brome ([1]; Rate 62 g/ha, scale 0 to 100): 0 | Plant response rating, Downy Brome [1, 8]: 0 | Plant response rating, Downy Brome [1, 9]: 0 | Plant response rating, Downy Brome [1, 10]: 0 | Plant response rating, Windgrass ([2]; Rate 62 g/ha, scale 0 to 100): 0 | Plant response rating, Windgrass [2, 8]: 0 | Plant response rating, Windgrass [2, 9]: 0 | Plant response rating, Windgrass [2, 10]: 20 | Plant response rating, Blackgrass ([3]; Rate 62 g/ha, scale 0 to 100): 0 | Plant response rating, Blackgrass [3, 8]: 0 | Plant response rating, Blackgrass [3, 9]: 0 | Plant response rating, Blackgrass [3, 10]: 20 | Plant response rating, Wheat ([4]; Rate 62 g/ha, scale 0 to 100): 0 | Plant response rating, Wheat [4, 8]: 0 | Plant response rating, Wheat [4, 9]: 0 | Plant response rating, Wheat [4, 10]: 0 | Plant response rating, Canarygrass ([5]; Rate 62 g/ha, scale 0 to 100): 0 | Plant response rating, Canarygrass [5, 8]: 0 | Plant response rating, Canarygrass [5, 9]: 0 | Plant response rating, Canarygrass [5, 10]: 0 | Plant response rating, Foxtail, Green ([6]; Rate 62 g/ha, scale 0 to 100): 0 | Plant response rating, Foxtail, Green [6, 8]: 30 | Plant response rating, Foxtail, Green [6, 9]: 30 | Plant response rating, Foxtail, Green [6, 10]: 60 | Plant response rating, Ryegrass ([7]; Rate 62 g/ha, scale 0 to 100): 0 | Plant response rating, Ryegrass [7, 8]: 0 | Plant response rating, Ryegrass [7, 9]: 0 | Plant response rating, Ryegrass [7, 10]: 30 | Plant response rating, Wild Oat (wild oat (Avena fatua); Rate 62 g/ha, scale 0 to 100): 0 | Plant response rating, Wild Oat (wild oat (Avena fatua); [8]): 0 | Plant response rating, Wild Oat (wild oat (Avena fatua); [9]): 0 | Plant response rating, Wild Oat (wild oat (Avena fatua); [10]): 20
